Key:
Test in all cases: Kinetic parameters determination (HPLC monitoring of MLC consumed and CoA produced)
[1] = target: T1, Tsukamurella pulmonis phloroglucinol synthase PhlD_Tpu WT, wild type, SEQ ID NO: 1 (Tsukamurella pulmonis, UniProt A0A1H1FBR5); assay type: biochemical; settings: MLC 5-100 µM, sodium phosphate buffer 50 mM pH 7, 30°C, 0.5 µM pure enzyme
T1 sequence (A0A1H1FBR5 1-390): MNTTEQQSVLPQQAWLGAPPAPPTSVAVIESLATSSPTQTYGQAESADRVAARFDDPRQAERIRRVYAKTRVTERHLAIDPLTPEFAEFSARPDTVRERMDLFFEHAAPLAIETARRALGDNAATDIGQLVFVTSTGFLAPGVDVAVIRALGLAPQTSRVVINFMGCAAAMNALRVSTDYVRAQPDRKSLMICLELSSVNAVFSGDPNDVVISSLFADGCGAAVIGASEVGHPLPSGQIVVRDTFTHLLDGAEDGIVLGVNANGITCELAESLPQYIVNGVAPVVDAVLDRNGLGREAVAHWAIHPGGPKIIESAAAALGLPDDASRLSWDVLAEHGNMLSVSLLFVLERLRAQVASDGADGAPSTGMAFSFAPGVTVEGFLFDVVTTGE
Description: (§1) The selected PhlD_Tpu sequences are amplified from the yeast expression plasmid and fused with a 6xHis tag encoded at the C-terminus. This fusion is inserted into the pET26b(+) plasmid, between the XhoI and NdeI restriction sites (as shown in Figure 4), with the […] controlling its expression. The recombinant plasmid is used to transform E. coli BL21(DE3) competent cells, which are grown in LB medium (10 g/L NaCl, 10 g/L Tryptone, 5 g/L yeast extract) at 37° C with shaking, in a final volume of 500 mL. The expression of the recombinant plasmid is initiated by adding 0.1 mM of IPTG when the OD600nm reaches 0.4-0.5. The cells are then allowed to grow overnight at 20°C until they reach an OD600nm of approximately 1.5-1.6.
(§2) E. coli BL21(DE3) cells transformed as described in paragraph 1.2.4 above were disrupted by Fast-Prep at a speed setting of 6 m/sec for 3 cycles of 45 sec. The supernatant is filtered on a 0.45 µm membrane before being applied to a 1 mL Talon® Resin column. The column is washed first with 10 column volumes of sodium phosphate buffer (50 mM, pH7; NaCl 100 mM) and with 10 column volumes of sodium phosphate buffer with 10 mM of imidazole ([…], Phosphate buffer 50 mM, 500 mM imidazole pH 8.5; 100mM NaCl). Protein elution is performed using 150 mM imidazole in sodium phosphate buffer (50 mM pH 7, NaCl 100mM). Collected fractions are pooled and diafiltrated using 5 volumes of sodium phosphate buffer (50 mM pH 7, NaCl 100mM) using a 30 kDa diafiltration unit (Amicon ®Ultra, Merck) before reducing the volume to 500 µL.
(§3) The concentrate is applied on a gel filtration column (S200 TRICORN 10/300 Superdex 200). Elution is performed with an isocratic gradient of sodium phosphate buffer (50 mM pH 7, NaCl 100mM). The purity of the various fractions obtained is checked by SDS-PAGE (Mini-PROTEAN TGX Stain-Free Gels, Bio Rad)
(§4) In order to access the kinetic parameters of PhlD_Tpu, the concentrations of MLC consumed and CoA produced were monitored by HPLC. The experiments were run for 120 sec and only the linear part of CoA variation with time was used to calculate initial velocity. The experiments were carried using a range of MLC concentrations (5-100 µM) in sodium phosphate buffer (50 mM pH 7), at 30°C, and with 0.5 µM of pure enzyme. At 10, 20, 30, 50, 60 and 120 sec, 100 µL aliquots of the reaction mixture were quenched with 10 µL of 10% (v/v) formic acid and kept at room temperature before HPLC analysis. With these conditions, the CoA production increased linearly with time until 50 sec. Table 7: HPLC conditions for MLC and CoA separation and quantification.

[2] = tested on: Tsukamurella pulmonis phloroglucinol synthase PhlD_Tpu variant M27 (A124P, A154P, S177A, S236P, E268Q, E271R, A298D), SEQ ID NO: 3; assay type: biochemical
Description: as §1, §2, §3, §4

[3] = tested on: CC(C)(COP(=O)(O)OP(=O)(O)OC[C@H]1O[C@@H](n2cnc3c(N)ncnc32)[C@H](O)[C@@H]1OP(=O)(O)O)[C@@H](O)C(=O)NCCC(=O)NCCSC(=O)CC(=O)O; assay type: biochemical, Tsukamurella pulmonis; settings: other: MLC 5-100 µM, sodium phosphate buffer 50 mM pH 7, 30°C, 0.5 µM pure enzyme
Description: as §1, §2, §3, §4

[4] = substrate: CC(C)(COP(=O)(O)OP(=O)(O)OC[C@H]1O[C@@H](n2cnc3c(N)ncnc32)[C@H](O)[C@@H]1OP(=O)(O)O)[C@@H](O)C(=O)NCCC(=O)NCCSC(=O)CC(=O)O; assay type: biochemical, Tsukamurella pulmonis; settings: other: MLC 5-100 µM, sodium phosphate buffer 50 mM pH 7, 30°C, 0.5 µM pure enzyme; remark: listed apart in the source
Description: as §1
E. coli BL21(DE3) cells transformed as described in paragraph 1.2.4 above were disrupted by Fast-Prep at a speed setting of 6 m/sec for 3 cycles of 45 sec. The supernatant is filtered on a 0.45 µm membrane before being applied to a 1 mL Talon® Resin column. […]
In order to access the kinetic parameters of PhlD_Tpu, the concentrations of MLC consumed and CoA produced were monitored by HPLC. […] Table 7: HPLC conditions for MLC and CoA separation and quantification.

Molecule: CC(C)(COP(=O)(O)OP(=O)(O)OC[C@H]1O[C@@H](n2cnc3c(N)ncnc32)[C@H](O)[C@@H]1OP(=O)(O)O)[C@@H](O)C(=O)NCCC(=O)NCCSC(=O)CC(=O)O [malonyl-CoA]
- kcat [1]: 0.38 s⁻¹
- kcat reduced by a factor (M27 vs PhlD_Tpu WT) ([2]; factor of reduction relative to PhlD_Tpu WT): 1.3
- KM relative to PhlD_Tpu WT ([2]; relative to PhlD_Tpu WT): twice lower
- catalytic efficiency, times higher compared to PhlD_Tpu WT ([2]; relative to PhlD_Tpu WT): 1.6

Molecule: Tsukamurella pulmonis phloroglucinol synthase PhlD_Tpu variant M27 (A124P, A154P, S177A, S236P, E268Q, E271R, A298D), SEQ ID NO: 3 (Tsukamurella pulmonis; A124P/A154P/A298D/E268Q/E271R/S177A/S236P)
- Km [3]: 4.9 ± 0.544 µM
- kcat [3]: 0.28 ± 0.06 s⁻¹
- kcat/Km [3]: 57000 M⁻¹ s⁻¹

B1: Tsukamurella pulmonis phloroglucinol synthase PhlD_Tpu WT, wild type, SEQ ID NO: 1 (Tsukamurella pulmonis) (protein)
chain: MNTTEQQSVLPQQAWLGAPPAPPTSVAVIESLATSSPTQTYGQAESADRVAARFDDPRQAERIRRVYAKTRVTERHLAIDPLTPEFAEFSARPDTVRERMDLFFEHAAPLAIETARRALGDNAATDIGQLVFVTSTGFLAPGVDVAVIRALGLAPQTSRVVINFMGCAAAMNALRVSTDYVRAQPDRKSLMICLELSSVNAVFSGDPNDVVISSLFADGCGAAVIGASEVGHPLPSGQIVVRDTFTHLLDGAEDGIVLGVNANGITCELAESLPQYIVNGVAPVVDAVLDRNGLGREAVAHWAIHPGGPKIIESAAAALGLPDDASRLSWDVLAEHGNMLSVSLLFVLERLRAQVASDGADGAPSTGMAFSFAPGVTVEGFLFDVVTTGE
- Km [4]: 10.52 µM
